Tested on: PMA-stimulated P90RSK(Ser380) phosphorylation in HepG2 cells
Assay: Cellular P90RSK(Ser380) Phosphorylation Assay (Biological Example 2)
Format: cell-based
Conditions: read-out: Biological Example 2 IC50, 1.5 hours compound incubation, PMA 100 ng/mL 30 minutes, normalized to GAPDH, single assay or mean of multiple assays
Experimental: Inhibition of PMA-stimulated P90RSK(Ser380) phosphorylation was determined by the following in vitro cellular mechanistic assay, which comprises incubating cells with a compound for 1.5 hours and quantifying fluorescent pP90RSK(Ser380) signal on fixed cells and normalizing to GAPDH signal.
HepG2 cells were obtained from ATCC and grown in DMEM supplemented with 10% fetal bovine serum. Cells were plated in 96-well plates at 35,000 cells/well and allowed to attach overnight at 37° C./5% CO2. Diluted compounds were then added at a final concentration of 0.5% DMSO. After 1.5 hours compound incubation, cells were stimulated with the addition of phorbol 12-myristate 13-acetate (“PMA”) at a final concentration of 100 ng/mL; the PMA stimulation was a 30-minute incubation at 37° C./5% CO2. After the 30-minute PMA stimulation, cells were washed with phosphate buffered saline (“PBS”) and fixed in 3.7% formaldehyde in PBS at room temperature for 15-20 minutes. This was followed by another wash in PBS and then permeabilization in 100% MeOH at room temperature for 10-15 minutes. Following the permeabilization incubation, cells were washed in PBS/0.05% Tween-20, followed by a block in Odyssey blocking buffer (LI-COR Biosciences) for at least 1 hour. […] Cells were then washed and analyzed for fluorescence at both wavelengths using the Odyssey Infrared Imaging System (LI-COR Biosciences). […]

Work on `Cc1cc(Nc2nccc(-c3ccn([C@H](CO)c4ccc(Cl)c(F)c4)c(=O)c3)n2)n(C)n1` [Example 167, (S)-1-(1-(4-chloro-3-fluorophenyl)-2-hydroxyethyl)-4-(2-((1,3-dimethyl-1H-pyrazol-5-yl)amino)pyrimidin-4-yl)pyridin-2(1H)-one] yielded an IC50 of 100 nM.

— patent US9259470B2, “Serine/threonine kinase inhibitors” (Array BioPharma Inc., priority 2012, dated 2016)
